What all share (assay type): cell-based
One assay deals with T1, AR (Homo sapiens, UniProt P10275).
T1 construct: expression of target proteins in cells; endogenous in cells
T1 sequence (P10275 1-920): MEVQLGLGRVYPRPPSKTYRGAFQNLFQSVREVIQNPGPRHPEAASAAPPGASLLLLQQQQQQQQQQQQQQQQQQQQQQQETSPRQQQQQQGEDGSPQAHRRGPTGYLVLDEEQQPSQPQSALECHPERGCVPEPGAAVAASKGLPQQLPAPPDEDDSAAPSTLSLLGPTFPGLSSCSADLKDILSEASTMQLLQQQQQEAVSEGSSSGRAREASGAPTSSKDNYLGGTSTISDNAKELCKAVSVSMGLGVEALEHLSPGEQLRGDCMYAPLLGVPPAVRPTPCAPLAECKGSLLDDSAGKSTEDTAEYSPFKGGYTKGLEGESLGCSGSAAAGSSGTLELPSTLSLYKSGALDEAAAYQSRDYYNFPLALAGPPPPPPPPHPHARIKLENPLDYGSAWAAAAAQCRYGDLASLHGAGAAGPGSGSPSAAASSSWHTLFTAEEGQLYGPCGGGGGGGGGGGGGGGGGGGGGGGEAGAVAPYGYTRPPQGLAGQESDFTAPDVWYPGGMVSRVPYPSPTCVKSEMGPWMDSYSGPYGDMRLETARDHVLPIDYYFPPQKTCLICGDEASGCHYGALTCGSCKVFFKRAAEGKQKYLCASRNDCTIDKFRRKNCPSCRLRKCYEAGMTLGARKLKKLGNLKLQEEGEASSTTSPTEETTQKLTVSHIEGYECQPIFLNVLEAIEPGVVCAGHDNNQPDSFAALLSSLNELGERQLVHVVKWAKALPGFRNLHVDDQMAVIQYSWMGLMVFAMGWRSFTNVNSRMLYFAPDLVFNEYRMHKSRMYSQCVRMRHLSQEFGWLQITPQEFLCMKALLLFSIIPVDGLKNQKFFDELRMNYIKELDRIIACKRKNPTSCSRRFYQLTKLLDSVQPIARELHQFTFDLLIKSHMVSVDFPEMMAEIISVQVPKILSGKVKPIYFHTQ
As to the kind of experiment: Western blot degradation of AR. The settings on record: LnCap Cell; 24 hours. The essentials: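 Cells treated with compound, lysed, and target protein detected by Western blot (SDS-PAGE, nitrocellulose transfer). DC50 taken as the concentration giving band grayscale half that of DMSO control, estimated by concentration-response fitting; remaining protein (%) from target band normalised to internal control band; degradation (%) = 1 − remaining.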
(In general: Immunoblotting shows a protein as a band on a membrane.)

The test system of assay [1] is Human diffuse large B-cell lymphoma cell line (TMD8). In words: Inhibition of TMD8 cell proliferation (CellTiter luminescent viability). The conditions noted are these: Homo sapiens, TMD8, 96 h, Table IF1, AR inhibitor-based; for inhibition at 0.01 µM: TMD8, 10 nM, read-out: Inhibition Rate at 10 nM (%); for inhibition at 0.5 µM: TMD8, 500 nM, read-out: Inhibition Rate at 500 nM (%).

The test system of assay [2] is Human Multiple myeloma cell line (MM.1S). In words: Inhibition of MM.1S cell proliferation (CellTiter luminescent viability). The conditions noted are these: 96 hours; for IC50: Table IA1, IRAK4 inhibitor-based, read-out: Inhibitory activity (IC50, nM) on tumor cell proliferation, MM.1S; for inhibition at 0.01 µM / inhibition at 0.5 µM: Homo sapiens, MM1.S, Table IA5, IRAK4 inhibitor-based; for inhibition at 0.01 µM: 10 nM, read-out: Inhibition Rate at 10 nM (%); for inhibition at 0.5 µM: 500 nM, read-out: Inhibition Rate at 500 nM (%). The essentials: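 IC50 is fitted from luminescent viability (CellTiter-Meiluncell) curves. Nine-point, 5-fold dilution series (top stock 2000 μM) are added at 0.5 μL per 100 μL medium to cells plated the day before, with growth at 37 °C and 5% CO2.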

Assay [3] concerns Human B-Cell Lymphoma Cells (RPMI-8226). In words: Inhibition of RPMI-8226 cell proliferation (CellTiter luminescent viability). The conditions noted are these: Table IA4, IRAK4 inhibitor-based, RPMI-8226, 500 nM, 96 hours, read-out: Inhibition Rate at 500 nM (%).
Experiment in assay [4]: as above
The conditions noted are these: Homo sapiens; Table IA4, IRAK4 inhibitor-based; RPMI-8226, 10 nM, 96 hours; read-out: Inhibition Rate at 10 nM (%).

The values below come from US20260364184A1, “COMPOUND BASED ON OXOISOINDOLINYL-SUBSTITUTED TETRAHYDROPYRIMIDINE-DIONE AND USE THEREOF” (GLUETACS THERAPEUTICS (SHANGHAI) CO., LTD., priority 2023, published 2026).

With `N#Cc1ccc(O[C@H]2CC[C@H](NC(=O)c3ccc(N4CCC(CN5CC6CCC5CN6c5ccc6c(c5)C(=O)N(N5CCC(=O)NC5=O)C6=O)CC4)nn3)CC2)cc1Cl` (some centres unmarked) [GT-05832, N-((1r,4r)-4-(3-chloro-4-cyanophenoxy)cyclohexyl)-6-(4-((5-(2-(2,4-dioxotetrahydropyrimidin-1(2H)-yl)-1,3-dioxoisoindolin-5-yl)-2,5-diazabicyclo[2.2.2]octan-2-yl)methyl)piperidin-1-yl)pyridazine-3-carboxamide], the “Degradation of substrate protein AR (substrate protein remaining %)” value (shortened to “Degradation … (substrate protein remaining %)”) on AR was “A (0%≤substrate protein remaining %≤80%)”. Besides, in assay [1], the inhibition at 0.01 µM lay within 10 to 15% and the inhibition at 0.5 µM lay within 40 to 60%.

For the compound `CC1(C)[C@H](NC(=O)c2ccc(N3CCC(CN4CC5CCC4CN5c4ccc5c(c4)C(=O)N(N4CCC(=O)NC4=O)C5=O)CC3)nc2)C(C)(C)[C@H]1Oc1ccc(C#N)c(Cl)c1` (some centres unmarked) [GT-05834, N-((1r,3r)-3-(3-chloro-4-cyanophenoxy)-2,2,4,4-tetramethylcyclobutyl)-6-(4-((5-(2-(2,4-dioxotetrahydropyrimidin-1(2H)-yl)-1,3-dioxoisoindolin-5-yl)-2,5-diazabicyclo[2.2.2]octan-2-yl)methyl)piperidin-1-yl)nicotinamide], at AR, the “Degradation … (substrate protein remaining %)” value was “A (0%≤substrate protein remaining %≤80%)”. In assay [1], the inhibition at 0.01 µM lay within 15 to 20% and the inhibition at 0.5 µM was in the range of 40 to 60%.

On to `O=C1CCN(N2Cc3cc(CN4CCC(n5cc(NC(=O)c6coc(-c7ccnc(NCC8CC8)c7)n6)c(C(F)F)n5)CC4)ccc3C2=O)C(=O)N1` [GT-04951, 2-(2-((cyclopropylmethyl)amino)pyridin-4-yl)-N-(3-(difluoromethyl)-1-(1-((2-(2,4-dioxotetrahydropyrimidin-1(2H)-yl)-1-oxoisoindolin-5-yl)methyl)piperidin-4-yl)-1H-pyrazol-4-yl) oxazole-4-carboxamide], for which, in assay [2], the IC50 lay in the range of 10 to 50 nM.

Consider `N#Cc1ccc(O[C@H]2CC[C@H](NC(=O)c3ccc(N4CCC(CN5C[C@@H]6C[C@H]5CN6c5ccc6c(c5)C(=O)N(N5CCC(=O)NC5=O)C6=O)CC4)nn3)CC2)cc1Cl` [GT-05226, N-((1r,4r)-4-(3-chloro-4-cyanophenoxy)cyclohexyl)-6-(4-(((1S,4S)-5-(2-(2,4-dioxotetrahydropyrimidin-1(2H)-yl)-1,3-dioxoisoindolin-5-yl)-2,5-diazabicyclo[2.2.1]heptan-2-yl)methyl)piperidin-1-yl)pyridazine-3-carboxamide], for which the “Degradation … (substrate protein remaining %)” value at AR is “A (0%≤substrate protein remaining %≤80%)”. For the same compound, in assay [1], the inhibition at 0.01 µM was in the range of 10 to 15% and the inhibition at 0.5 µM is 25 to 30%.

In the case of `CC(C)(O)c1cc2nc(C3CCN(Cc4ccc5c(c4)CN(N4CCC(=O)NC4=O)C5=O)CC3)oc2cc1NC(=O)c1cccc(C(F)(F)F)n1` [GT-05748, N-(2-(1-((2-(2,4-dioxotetrahydropyrimidin-1(2H)-yl)-1-oxoisoindolin-5-yl)methyl)piperidin-4-yl)-5-(2-hydroxypropan-2-yl)benzo[d]oxazol-6-yl)-6-(trifluoromethyl) picolinamide], the inhibition at 0.5 µM in assay [3] is 15 to 20%. Besides, in assay [4], the inhibition at 0.01 µM was 30 to 40%.

In the case of `O=C1CCN(N2C(=O)c3ccc(N4C5CC4CN(C[C@H]4CC[C@H](n6cc(NC(=O)c7cnn8ccc(N9C[C@H]%10C[C@@H]9CO%10)nc78)c(C(F)F)n6)CC4)C5)cc3C2=O)C(=O)N1` [GT-05242, 5-((1R,4R)-2-oxa-5-azabicyclo[2.2.1]heptan-5-yl)-N-(3-(difluoromethyl)-1-((1r,4R)-4-((6-(2-(2,4-dioxotetrahydropyrimidin-1(2H)-yl)-1,3-dioxoisoindolin-5-yl)-3,6-diazabicyclo[3.1.1]heptan-3-yl)methyl)cyclohexyl)-1H-pyrazol-4-yl)pyrazolo[1,5-a]pyrimidine-3-carboxamide], in assay [3], the inhibition at 0.5 µM is 30 to 40%. In assay [4], the inhibition at 0.01 µM is 20 to 25%.

On to `O=C1CCN(N2C(=O)c3cccc(N4CCC(CN5CCC(n6cc(NC(=O)c7cnn8ccc(N9C[C@H]%10C[C@@H]9CO%10)nc78)c(C(F)F)n6)CC5)CC4)c3C2=O)C(=O)N1` [GT-05285, 5-((1R,4R)-2-oxa-5-azabicyclo[2.2.1]heptan-5-yl)-N-(3-(difluoromethyl)-1-(1-((1-(2-(2,4-dioxotetrahydropyrimidin-1(2H)-yl)-1,3-dioxoisoindolin-4-yl)piperidin-4-yl)methyl)piperidin-4-yl)-1H-pyrazol-4-yl)pyrazolo[1,5-a]pyrimidine-3-carboxamide], for which the inhibition at 0.5 µM in assay [3] fell in the range of 25 to 30%; in assay [2] it was 60 to 80%. In addition, the inhibition at 0.01 µM lay within 30 to 40% in assay [4] and 40 to 60% in assay [2].

As for `O=C1CCN(N2Cc3cc(CN4CCC(n5cc(NC(=O)c6cnn7ccc(N8C[C@H]9C[C@@H]8CO9)nc67)c(C(F)F)n5)CC4)ccc3C2=O)C(=O)N1` [GT-05028, 5-((1R,4R)-2-oxa-5-azabicyclo[2.2.1]heptan-5-yl)-N-(3-(difluoromethyl)-1-(1-((2-(2,4-dioxotetrahydropyrimidin-1(2H)-yl)-1-oxoisoindolin-5-yl)methyl)piperidin-4-yl)-1H-pyrazol-4-yl)pyrazolo[1,5-a]pyrimidine-3-carboxamide], in assay [2], the IC50 is 10 to 50 nM.

In the case of `O=C1CCN(N2Cc3cc(CN4CCC(n5cc(NC(=O)c6cnn7ccc(N8CCOCC8)nc67)c(C(F)F)n5)CC4)ccc3C2=O)C(=O)N1` [GT-05749], the values for the inhibition at 0.5 µM in assay [3] and in assay [2] were 15 to 20% and 80 to 100%, respectively. Further, the inhibition at 0.01 µM in assay [4] lay within 25 to 30%; in assay [2], 20 to 25%.

Broadly, the inhibition is how much of the control response was suppressed.
